Consider 1 compound from article PMC5730592, “Parallelogram based approach for in vivo dose estimation of genotoxic metabolites in humans with relevance to reduction of animal experiments” (Scientific Reports, 2017).

A short description of one data set: in vitro. To be noted: for Vmax (SE), GA elimination: GA 2–50 μM, 10 min, pH 7.5, 37 °C, n = 7 × 2; for EE = Vmax/Km, GA elimination / Km: male, pH 7.5. The method, then:
As the parameters Vmax and Km were determined by the same experimental setup, the enzyme efficiency (EE) for the metabolic reactions is calculated as the ratio of Vmax to Km.
The metabolic system was similar to that we used in our earlier work[20] and is described in Supplementary information Note 1. […] The mixture was centrifuged (500 × g, 4 min) and supernatant treated as described below.
The supernatant (300 μL) obtained following centrifugation in the metabolism experiments was added to a cob(I)alamin solution (200 μL) in water. The reaction was continued under argon atmosphere for 20 min, and subsequently a gentle stream of air was passed to oxidize any reduced cobalamin. Analysis of the solution was performed by liquid chromatography tandem mass spectrometry (LC-MS/MS). The MS was operated using electrospray positive-ionization (ESI^+) and quantification performed using multiple reaction monitoring (MRM) mode. Method for preparation of cob(I)alamin solution from hydroxocobalamin and analysis of the generated alkylcobalamins, GA-Cbl from GA and PO-Cbl from PO, were similar to our earlier work[8] and are described under Supplementary information Notes 2–4.
The area under MRM peaks from GA-Cbl and PO-Cbl were measured with Analyst software version 1.5 from AB Sciex. Using calibration curve obtained for GA using inactivated S9 as matrix, the concentrations of GA in the metabolism studies were determined as described earlier by us[8]. The metabolic data was used to obtain Lineweaver-Burk plot for graphical representation of studied enzyme kinetics. Apparent values for the respective maximum velocity (Vmax) of the enzymatic conversion, the Michaelis constant (Km) and standard error were estimated by nonlinear fitting using the Hill function in Origin version 2015 (OriginLab, Northampton, MA, USA).
To human or rat liver S9 fraction (150 μL, 1–5 mg proteins) at 4 °C in a 2 mL vial with a screw-tight cap were added aqueous KCl (0.15 M, 300 μL), MgSO4 (80 mM, 150 μL), glucose-6-phosphate (50 mM, 150 μL) and NADP (40 mM, 150 μL), and the volume was made up to 1.5 mL with pH 7.5 phosphate buffer. The mixture was incubated for 5 min at 37 °C prior to the addition of the substrate.

Details of data set [1]: method as in Doerge at al. (2005). To be noted: male F344 rats, single dietary exposure ca. 100 µg AA/kg bw, n = 7, direct measurements; ref Doerge at al. (2005); cited from earlier work.
Data set [2] in a line: Parallelogram approach estimation of AUC-GA in human. To be noted: predicted ratio × measured human AUC-AA. The source says:
(§1) The parallelogram approach representing inter-species comparison of in vivo dose and the use of in vitro data is shown in Fig. 1 for the metabolic transformation of R to RX, which is referred to as the metabolism of AA to GA in the present study. This figure can be formulated to Eq. 1 as described in Methods (cf. Eq. 5), where the superscripts H and R represent the corresponding AUC or EE in human and rat, respectively.1 AUC^H−RX/AUC^R−RX=EE^H−R→RX/EE^H−RXel/EE^R−R→RX/EE^R−RXel×AUC^H−R/AUC^R−R
(§2) The in vitro data on enzyme kinetics from human and rat (Table 1), and the in vivo data on AUC of AA and of GA in rat (Table 2) were used to calculate the predictive value of AUC-GA per AUC-AA in human, according to the parallelogram approach (cf. Methods, Eq. 5). This was calculated to 0.087 (Table 3). […] It was observed that the AUC-GA in human and rat predicted by the parallelogram approach and from measured Hb adduct levels, respectively, differed with about a factor of 3 (cf. Tables 2 and 3). This difference is within the variability range of AUC-GA for respective species calculated from different in vivo studies. […]

A short description of data set [3]: Parallelogram approach estimation of AUC-GA in rat.
Text: as §1, §2

For data set [4] the following is noted: male rat, different AA exposure studies, various methods; cited from earlier work.
The conditions of data set [5]: cited from earlier work.
For data set [6] the following is noted: cited from earlier work. This is another data set of the same source.

Values joined by “and” are separate entries in the source; they are usually repeats but may differ in a detail not shown here. Equal entries are not always repeated. Where two headings read alike, the source gives them in different places.

For orientation: Km means the concentration of substrate that gives half-maximal velocity. Regarding `NC(=O)C1CO1` (racemic) [GA, rac-Glycidamide], the “Vmax (SE), GA elimination” value in “in vitro” (Human S9) is 1.6 (0.7) nmol·mg protein^−1·min^−1; in “in vitro” (Rat S9 (male SD)), 0.26 (0.02) nmol·mg protein^−1·min^−1. The “EE of elimination of GA, human compared to rat (times faster in human)” value in “in vitro” (liver S9, human vs. rat) is on record as “ca. 1.5 times”. For the same compound, the “EE of oxidative formation of GA, rat compared to human (times faster in rat)” value in the data set “in vitro” (liver S9, rat vs. human) is reported as “ca. 4 times”. Further, the “EE ratio of AA → GA to that of GAel, rat compared to human (times higher in rat)” value in the data set “in vitro” (liver S9, rat vs. human) was “ca. 6 times”. The “EE = Vmax/Km, GA elimination” value stood at 43 μL·mg protein^−1·min^−1 in the data set “in vitro” (Sprague-Dawley, rat) and 62 μL·mg protein^−1·min^−1 in the data set “in vitro” (human). The Michaelis-Menten constant (Km) in the data set “in vitro” (Sprague-Dawley, rat) turned out to be 6 µM; in “in vitro” (human), 26 µM. Also, the AUC-GA was 19 nM·h/ μg AA per kg bw in data set [1]; 18 nM·h/μg AA per kg bw and 18 ± 1 nM·h/μg AA per kg bw in data set [5] (Rat (male F344), 500 and 2000 μg AA/kg bw and day in drinking water, one week, n = 6, from Hb adducts); 14 nM·h/ μg AA per kg bw in data set [5] (male F344 rats, single dose 0.1 mg AA/kg bw, Hb adducts, ref Tareke et al. (2006)); 49 nM·h/μg AA per kg bw and 49 ± 17 nM·h/μg AA per kg bw in data set [6] (Human, ca. 11 μg AA/kg bw and day through food, 4 days, n = 9, from Hb adducts); 21 nM·h/ μg AA per kg bw in data set [6] (Humans, ca. 2.5 μg AA/kg bw daily through food, 28 days, n = 9, ref Vikström et al. (2011)); 60 nM·h/ μg AA per kg bw in data set [6] (Humans, single dose in drinking water 500, 1000 and 3000 µg AA/kg bw, n = 6 males, ref Fennell et al. (2005)). The “AUC-GA estimated from the parallelogram approach” value was 18 nM·h/μg AA per kg bw and 18^a nM·h/μg AA per kg bw in data set [2]; 48 nM·h/μg AA per kg bw in data set [3] (Rat, predicted ratio × measured rat AUC-AA). Besides, the “ratio between species (rat-to-human) of AUC-GA per AUC-AA” value in data set [3] (from the parallelogram approach) is reported as 16. Moreover, in data set [4], the “range of AUC-GA” value was 13–52 nM·h per μg AA per kg bw. Moreover, the “AUC of GA” value in data set [5] (SD rat (male), subchronic intraperitoneal AA, Hb adducts on cysteine site) is listed as 16.3 nM·h per μg AA per kg bw. Moreover, in data set [6] (Human, AA-rich food 4 days, 11 μg AA/kg bw, adducts to N-terminal valine), the “daily Hb adduct level increment per exposure dose” value was 1.02 pmol/g globin per μg AA/kg bw and day.
